According to ChEMBL document CHEMBL4311991, “Design, synthesis, and biological evaluation of 1-substituted -2-aryl imidazoles targeting tubulin polymerization as potential anticancer agents” (Eur J Med Chem, 2019):
pIC50: −log10 of the molar value.

Tested on: MDA-MB-468
Assay: Antiproliferative activity against human MDA-MB-468 cells assessed as reduction in cell viability after 72 hrs by MTT assay
Assay type: functional, cell-based
Details: MDA-MB-468, 72 h

pIC50 | SMILES
5.57 | COc1cc(-c2nccn2-c2ccc(Br)cc2)cc(OC)c1OC
4.45 | COc1ccc(C(=O)Oc2cc(OC)c(OC)c(OC)c2)cc1[N+](=O)[O-]
< 4.00 | COc1cc(-c2nccn2Cc2ccccc2)cc(OC)c1OC
5.21 | COc1cc(-c2nccn2-c2cccc3ccccc23)cc(OC)c1OC
5.54 | COc1ccc(NC(=O)c2cc(OC)c(OC)c(OC)c2)cc1[N+](=O)[O-]
< 4.00 | COc1cc(-c2nccn2CC(C)C)cc(OC)c1OC
< 4.00 | COc1ccc(OC(=O)c2cc(OC)c(OC)c(OC)c2)cc1[N+](=O)[O-]
6.40 | COc1cc(-c2nccn2-c2ccc(C)cc2)cc(OC)c1OC
6.40 | COc1cc(-c2nccn2-c2ccc3sccc3c2)cc(OC)c1OC
5.14 | COc1cc(-c2nccn2-c2cccc([N+](=O)[O-])c2)cc(OC)c1OC
< 4.00 | CCCn1ccnc1-c1cc(OC)c(OC)c(OC)c1
5.70 | COc1ccc(NC(=O)c2cc(OC)c(OC)c(OC)c2)cc1N
< 4.00 | COc1cc(-c2nccn2C)cc(OC)c1OC
4.98 | COc1cccc(-n2ccnc2-c2cc(OC)c(OC)c(OC)c2)c1
5.64 | COc1cc(-c2nccn2-c2ccc3[nH]ccc3c2)cc(OC)c1OC
< 4.00 | COc1ccc(C(=O)Oc2cc(OC)c(OC)c(OC)c2)cc1N

Tested on: HT-29
Assay: Antiproliferative activity against human HT-29 cells assessed as reduction in cell viability after 72 hrs by MTT assay
Assay type: functional, cell-based
Details: HT-29, 72 h

pIC50 | SMILES
5.11 | COc1cc(-c2nccn2-c2ccc(Br)cc2)cc(OC)c1OC
< 4.00 | COc1ccc(C(=O)Oc2cc(OC)c(OC)c(OC)c2)cc1[N+](=O)[O-]
< 4.00 | COc1cc(-c2nccn2Cc2ccccc2)cc(OC)c1OC
4.83 | COc1cc(-c2nccn2-c2cccc3ccccc23)cc(OC)c1OC
5.01 | COc1ccc(NC(=O)c2cc(OC)c(OC)c(OC)c2)cc1[N+](=O)[O-]
< 4.00 | COc1cc(-c2nccn2CC(C)C)cc(OC)c1OC
< 4.00 | COc1ccc(OC(=O)c2cc(OC)c(OC)c(OC)c2)cc1[N+](=O)[O-]
5.80 | COc1cc(-c2nccn2-c2ccc(C)cc2)cc(OC)c1OC
5.82 | COc1cc(-c2nccn2-c2ccc3sccc3c2)cc(OC)c1OC
< 4.00 | COc1cc(-c2nccn2-c2cccc([N+](=O)[O-])c2)cc(OC)c1OC
< 4.00 | CCCn1ccnc1-c1cc(OC)c(OC)c(OC)c1
5.92 | COc1ccc(NC(=O)c2cc(OC)c(OC)c(OC)c2)cc1N
< 4.00 | COc1cc(-c2nccn2C)cc(OC)c1OC
4.72 | COc1cccc(-n2ccnc2-c2cc(OC)c(OC)c(OC)c2)c1
5.04 | COc1cc(-c2nccn2-c2ccc3[nH]ccc3c2)cc(OC)c1OC
< 4.00 | COc1ccc(C(=O)Oc2cc(OC)c(OC)c(OC)c2)cc1N

Tested on: HUVEC
Assay: Cytotoxicity against HUVEC assessed as reduction in cell viability after 72 hrs by MTT assay
Assay type: cell-based
Details: Homo sapiens

SMILES | pIC50
COc1cc(-c2nccn2-c2ccc(Br)cc2)cc(OC)c1OC | < 4.00
COc1cc(-c2nccn2-c2ccc(C)cc2)cc(OC)c1OC | < 4.00
COc1cc(-c2nccn2-c2cccc([N+](=O)[O-])c2)cc(OC)c1OC | < 4.00
COc1cc(-c2nccn2-c2ccc3[nH]ccc3c2)cc(OC)c1OC | 4.33

Tested on: MDA-MB-231
Assay: Antiproliferative activity against human MDA-MB-231 cells assessed as reduction in cell viability after 72 hrs by MTT assay
Assay type: functional, cell-based
Details: MDA-MB-231, 72 h

pIC50 | SMILES
5.08 | COc1cc(-c2nccn2-c2ccc(Br)cc2)cc(OC)c1OC
< 4.00 | COc1ccc(C(=O)Oc2cc(OC)c(OC)c(OC)c2)cc1[N+](=O)[O-]
< 4.00 | COc1cc(-c2nccn2Cc2ccccc2)cc(OC)c1OC
5.10 | COc1cc(-c2nccn2-c2cccc3ccccc23)cc(OC)c1OC
4.51 | COc1ccc(NC(=O)c2cc(OC)c(OC)c(OC)c2)cc1[N+](=O)[O-]
< 4.00 | COc1cc(-c2nccn2CC(C)C)cc(OC)c1OC
< 4.00 | COc1ccc(OC(=O)c2cc(OC)c(OC)c(OC)c2)cc1[N+](=O)[O-]
5.39 | COc1cc(-c2nccn2-c2ccc(C)cc2)cc(OC)c1OC
4.77 | COc1cc(-c2nccn2-c2ccc3sccc3c2)cc(OC)c1OC
< 4.00 | COc1cc(-c2nccn2-c2cccc([N+](=O)[O-])c2)cc(OC)c1OC
< 4.00 | CCCn1ccnc1-c1cc(OC)c(OC)c(OC)c1
4.73 | COc1ccc(NC(=O)c2cc(OC)c(OC)c(OC)c2)cc1N
< 4.00 | COc1cc(-c2nccn2C)cc(OC)c1OC
4.74 | COc1cccc(-n2ccnc2-c2cc(OC)c(OC)c(OC)c2)c1
5.37 | COc1cc(-c2nccn2-c2ccc3[nH]ccc3c2)cc(OC)c1OC
< 4.00 | COc1ccc(C(=O)Oc2cc(OC)c(OC)c(OC)c2)cc1N

Tested on: HCT-15
Assay: Antiproliferative activity against human HCT15 cells assessed as reduction in cell viability after 72 hrs by MTT assay
Assay type: functional, cell-based
Details: HCT-15, 72 h

pIC50 | SMILES
4.93 | COc1cc(-c2nccn2-c2ccc(Br)cc2)cc(OC)c1OC
< 4.00 | COc1ccc(C(=O)Oc2cc(OC)c(OC)c(OC)c2)cc1[N+](=O)[O-]
< 4.00 | COc1cc(-c2nccn2Cc2ccccc2)cc(OC)c1OC
4.60 | COc1cc(-c2nccn2-c2cccc3ccccc23)cc(OC)c1OC
4.75 | COc1ccc(NC(=O)c2cc(OC)c(OC)c(OC)c2)cc1[N+](=O)[O-]
< 4.00 | COc1cc(-c2nccn2CC(C)C)cc(OC)c1OC
< 4.00 | COc1ccc(OC(=O)c2cc(OC)c(OC)c(OC)c2)cc1[N+](=O)[O-]
6.10 | COc1cc(-c2nccn2-c2ccc(C)cc2)cc(OC)c1OC
5.48 | COc1cc(-c2nccn2-c2ccc3sccc3c2)cc(OC)c1OC
< 4.00 | COc1cc(-c2nccn2-c2cccc([N+](=O)[O-])c2)cc(OC)c1OC
< 4.00 | CCCn1ccnc1-c1cc(OC)c(OC)c(OC)c1
5.19 | COc1ccc(NC(=O)c2cc(OC)c(OC)c(OC)c2)cc1N
< 4.00 | COc1cc(-c2nccn2C)cc(OC)c1OC
4.77 | COc1cccc(-n2ccnc2-c2cc(OC)c(OC)c(OC)c2)c1
5.34 | COc1cc(-c2nccn2-c2ccc3[nH]ccc3c2)cc(OC)c1OC
< 4.00 | COc1ccc(C(=O)Oc2cc(OC)c(OC)c(OC)c2)cc1N

Tested on: HeLa
Assay: Antiproliferative activity against human HeLa cells assessed as reduction in cell viability after 72 hrs by MTT assay
Assay type: functional, cell-based
Details: not given

pIC50 | SMILES
5.48 | COc1cc(-c2nccn2-c2ccc(Br)cc2)cc(OC)c1OC
< 4.00 | COc1ccc(C(=O)Oc2cc(OC)c(OC)c(OC)c2)cc1[N+](=O)[O-]
< 4.00 | COc1cc(-c2nccn2Cc2ccccc2)cc(OC)c1OC
4.51 | COc1cc(-c2nccn2-c2cccc3ccccc23)cc(OC)c1OC
4.41 | COc1ccc(NC(=O)c2cc(OC)c(OC)c(OC)c2)cc1[N+](=O)[O-]
< 4.00 | COc1cc(-c2nccn2CC(C)C)cc(OC)c1OC
< 4.00 | COc1ccc(OC(=O)c2cc(OC)c(OC)c(OC)c2)cc1[N+](=O)[O-]
6.15 | COc1cc(-c2nccn2-c2ccc(C)cc2)cc(OC)c1OC
5.85 | COc1cc(-c2nccn2-c2ccc3sccc3c2)cc(OC)c1OC
5.17 | COc1cc(-c2nccn2-c2cccc([N+](=O)[O-])c2)cc(OC)c1OC
< 4.00 | CCCn1ccnc1-c1cc(OC)c(OC)c(OC)c1
5.39 | COc1ccc(NC(=O)c2cc(OC)c(OC)c(OC)c2)cc1N
< 4.00 | COc1cc(-c2nccn2C)cc(OC)c1OC
4.96 | COc1cccc(-n2ccnc2-c2cc(OC)c(OC)c(OC)c2)c1
5.36 | COc1cc(-c2nccn2-c2ccc3[nH]ccc3c2)cc(OC)c1OC
< 4.00 | COc1ccc(C(=O)Oc2cc(OC)c(OC)c(OC)c2)cc1N

Tested on: T47D
Assay: Antiproliferative activity against human T47D cells assessed as reduction in cell viability after 72 hrs by MTT assay
Assay type: functional, cell-based
Details: not given

pIC50 | SMILES
4.61 | COc1cc(-c2nccn2-c2ccc(Br)cc2)cc(OC)c1OC
4.53 | COc1ccc(C(=O)Oc2cc(OC)c(OC)c(OC)c2)cc1[N+](=O)[O-]
< 4.00 | COc1cc(-c2nccn2Cc2ccccc2)cc(OC)c1OC
4.82 | COc1cc(-c2nccn2-c2cccc3ccccc23)cc(OC)c1OC
4.46 | COc1ccc(NC(=O)c2cc(OC)c(OC)c(OC)c2)cc1[N+](=O)[O-]
< 4.00 | COc1cc(-c2nccn2CC(C)C)cc(OC)c1OC
< 4.00 | COc1ccc(OC(=O)c2cc(OC)c(OC)c(OC)c2)cc1[N+](=O)[O-]
4.69 | COc1cc(-c2nccn2-c2ccc(C)cc2)cc(OC)c1OC
4.77 | COc1cc(-c2nccn2-c2ccc3sccc3c2)cc(OC)c1OC
4.75 | COc1cc(-c2nccn2-c2cccc([N+](=O)[O-])c2)cc(OC)c1OC
< 4.00 | CCCn1ccnc1-c1cc(OC)c(OC)c(OC)c1
4.30 | COc1ccc(NC(=O)c2cc(OC)c(OC)c(OC)c2)cc1N
< 4.00 | COc1cc(-c2nccn2C)cc(OC)c1OC
4.49 | COc1cccc(-n2ccnc2-c2cc(OC)c(OC)c(OC)c2)c1
5.68 | COc1cc(-c2nccn2-c2ccc3[nH]ccc3c2)cc(OC)c1OC
< 4.00 | COc1ccc(C(=O)Oc2cc(OC)c(OC)c(OC)c2)cc1N
